The target in series [1] is Sonic hedgehog protein (Homo sapiens, UniProt Q15465). Description: Binding affinity to recombinant Shh N-terminal peptide by surface plasma resonance.
For series [2], the target named is Sonic hedgehog protein (Mus musculus) (UniProt Q62226). Description: Inhibition of SHH in mouse Ptch deffective MEF cells after 30 hrs by Gli-responsive beta-galactosidse reporter gene assay. The class given is cell-based. (In a reporter assay the amount or activity of a reporter protein is the signal.)
The nature of series [3]: Cytotoxicity against mouse Shh Light2 cells by cell titer glo assay. The class given is cell-based. To be noted: shh light ii. A general note: Cellular ATP, detected with luciferase, serves as a proxy for viable cell number.
The target in series [4] is Sonic hedgehog protein (Mus musculus) (UniProt Q62226). Description: Inhibition of SHH in mouse Shh Light2 cells after 30 hrs by GLI-responsive bright glo luciferase reporter gene assay relative to 6 uM cyclopamine. The class given is functional, cell-based. Conditions: Shh Light II.
The target is the same in series [5]. Description: (§1) Inhibition of SHH in mouse Shh Light2 cells after 30 hrs by GLI-responsive bright glo luciferase reporter gene assay. The class given is functional, cell-based. Conditions: Shh Light II.
Series [6] deals with Sonic hedgehog protein (Mus musculus, UniProt Q62226). Described as §1. The class given is functional, cell-based, Shh Light II.
Chain of Sonic hedgehog protein (Mus musculus, UniProt Q62226) (Q62226 25-198 limits assumed): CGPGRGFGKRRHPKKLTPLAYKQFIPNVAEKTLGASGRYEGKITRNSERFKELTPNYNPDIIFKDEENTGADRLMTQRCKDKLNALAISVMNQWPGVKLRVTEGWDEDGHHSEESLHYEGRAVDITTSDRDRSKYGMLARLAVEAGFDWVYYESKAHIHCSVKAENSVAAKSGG
Series [7] deals with Sonic hedgehog protein (Mus musculus) (UniProt Q62226). Description: Inhibition of SHH in mouse Shh Light2 cells after 30 hrs by GLI-responsive bright glo luciferase reporter gene assay relative to cyclopamine. The class given is functional, cell-based. To be noted: Shh Light II.
Series [8] has the same target. Description: Inhibition of SHH in mouse Shh Light2 cells after 30 hrs by GLI-responsive bright glo luciferase reporter gene assay at 15.6 uM relative to 6 uM cyclopamine. The class given is functional, cell-based. Conditions: Shh Light II.

Calls of active or inactive are those of the source. The rule behind the calls is not given here. A value given as a limit tells only on which side of the number the result lay.

Chain of Sonic hedgehog protein (Homo sapiens, UniProt Q15465) (Q15465 24-197 limits assumed): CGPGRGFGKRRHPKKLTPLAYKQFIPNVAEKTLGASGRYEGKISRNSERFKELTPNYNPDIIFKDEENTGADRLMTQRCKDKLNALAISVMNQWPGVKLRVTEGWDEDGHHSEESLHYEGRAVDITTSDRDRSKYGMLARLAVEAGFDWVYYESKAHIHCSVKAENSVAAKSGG

`O=C(C[C@@H]1C/C=C/CCCCC(=O)OCCNC1=O)NCc1ccc(Cl)cc1`: the figures for the Activity result (at Sonic hedgehog protein [1]; in series [3]) were “Dose-dependent effect” and “Non-toxic”, respectively. Moreover, the inhibition result in series [2] was “inactive”. Also, the ECmax in series [4] was found to be 70%.
Regarding `O=C(C[C@H]1C/C=C/CCC(=O)O[C@H](c2ccccc2)CNC1=O)NCc1ccc(Cl)cc1`, the Activity entry on Sonic hedgehog protein [1] is “Dose-dependent effect”; in series [3], “Non-toxic”. Moreover, the inhibition entry in series [2] is “inactive”. Further, the ECmax in series [5] was 62.5 µM.
On to `O=C(C[C@H]1C/C=C/CCC(=O)O[C@@H](c2ccccc2)CNC1=O)NCc1ccc(Cl)cc1`, for which the Activity entry on Sonic hedgehog protein [1] was “Dose-dependent effect”; in series [3], “Non-toxic”. The inhibition result in series [2] is “inactive”.
With `O=C(C[C@@H]1C/C=C/CCC(=O)O[C@H](c2ccccc2)CNC1=O)NCc1ccc(Cl)cc1` [ROBOTNIKININ], the Activity result at Sonic hedgehog protein [1] is “Dose-dependent effect”; in series [3], “Non-toxic”. Moreover, the inhibition entry in series [2] was “inactive”. This molecule also returned an ECmax in series [4] of 91%. This molecule also gave an EC50 at Sonic hedgehog protein [6] of 4 µM.
On to `O=C(C[C@@H]1C/C=C/CCCCC(=O)O[C@H](c2ccccc2)CNC1=O)NCc1ccc(Cl)cc1`, for which the Activity result was “Dose-dependent effect” on Sonic hedgehog protein [1] and “Non-toxic” in series [3]. Besides, the inhibition result in series [2] was “inactive”.
Take `O=C(C[C@H]1C/C=C/CCCC(=O)O[C@@H](c2ccccc2)CNC1=O)NCc1ccc(Cl)cc1`: at Sonic hedgehog protein [1], the Activity result is “Dose-dependent effect” and the equilibrium dissociation constant (Kd) amounted to 3.1 µM. The inhibition result in series [2] was “inactive”. Further, the Activity result in series [3] was “Non-toxic”.
`O=C(C[C@H]1C/C=C/CCCCC(=O)O[C@H](c2ccccc2)CNC1=O)NCc1ccc(Cl)cc1`: the inhibition result (on Sonic hedgehog protein [1]; in series [2]) was “inactive” throughout. Besides, the Activity entry in series [3] is “Non-toxic”.
Consider `O=C(C[C@@H]1C/C=C/CCCCC(=O)O[C@@H](c2ccccc2)CNC1=O)NCc1ccc(Cl)cc1`, for which the values for the Activity entry (on Sonic hedgehog protein [1]; in series [3]) were “Dose-dependent effect” and above 31 µM, respectively. Also, the inhibition entry in series [2] was “inactive”.
Take `O=C(C[C@H]1C/C=C/CCCC(=O)O[C@H](c2ccccc2)CNC1=O)NCc1ccc(Cl)cc1`: in series [2], the inhibition entry is “inactive”. Also, the Activity result in series [3] is listed as “Non-toxic”. For the same molecule, the ECmax in series [7] came out at 71%.
Take `O=C(C[C@@H]1C/C=C/CCC(=O)OCCNC1=O)NCc1ccc(Cl)cc1`: the Activity result on Sonic hedgehog protein [1] is “Dose-dependent effect”; in series [3], “Non-toxic”. In series [2], the inhibition result is “inactive”. In series [4], this molecule displayed an ECmax of 55%.
For `O=C(C[C@@H]1C/C=C/CCC(=O)O[C@@H](c2ccccc2)CNC1=O)NCc1ccc(Cl)cc1`, the Activity result on Sonic hedgehog protein [1] is “Dose-dependent effect”; in series [3], above 15.6 µM. Also, the inhibition result in series [2] was “inactive”. For the same molecule, the ECmax in series [8] is 57%.
Take `O=C(C[C@H]1C/C=C/CCCCC(=O)OCCNC1=O)NCc1ccc(Cl)cc1`: the inhibition entry in series [2] is “inactive”. Further, the Activity entry in series [3] is listed as “Non-toxic”.
With `O=C(C[C@H]1C/C=C/CCCCC(=O)O[C@@H](c2ccccc2)CNC1=O)NCc1ccc(Cl)cc1`, the inhibition result in series [2] is “inactive”. Also, in series [3], the Activity entry is “Non-toxic”.
As for `O=C(C[C@@H]1C/C=C/CCCC(=O)O[C@H](c2ccccc2)CNC1=O)NCc1ccc(Cl)cc1`, the values for the Activity entry (on Sonic hedgehog protein [1]; in series [3]) were “Dose-dependent effect” and “Non-toxic”, respectively. For the same molecule, in series [2], the inhibition entry is “inactive”. For the same molecule, the ECmax in series [4] worked out at 93%.
Regarding `O=C(C[C@H]1C/C=C/CCCC(=O)OCCNC1=O)NCc1ccc(Cl)cc1`, in series [2], the inhibition result was “inactive”. Further, the Activity result in series [3] was “Non-toxic”.
With `O=C(C[C@H]1C/C=C/CCC(=O)OCCNC1=O)NCc1ccc(Cl)cc1`, the results for the Activity entry (at Sonic hedgehog protein [1]; in series [3]) were “Dose-dependent effect” and “Non-toxic”, respectively. Moreover, the inhibition result in series [2] is “inactive”. In addition, the ECmax in series [4] is 50%.
For the molecule `O=C(C[C@@H]1C/C=C/CCCC(=O)O[C@@H](c2ccccc2)CNC1=O)NCc1ccc(Cl)cc1`, the figures for the Activity result (on Sonic hedgehog protein [1]; in series [3]) were “Dose-dependent effect” and “Non-toxic”, respectively. Further, the inhibition entry in series [2] was “inactive”.
Taken in the same sequence, the figures for `O=C(C[C@@H]1C/C=C/CCCC(=O)OCCNC1=O)NCc1ccc(Cl)cc1` were “Dose-dependent effect”, “Non-toxic” and “inactive”.

By EC50 is commonly meant the concentration at which the effect is half-maximal. Low values mean a more potent agent, high ones a less potent agent. As usually defined, the Kd is the constant that tells how readily two partners part at equilibrium.

Values taken from ChEMBL document CHEMBL1154349, “Syntheses of aminoalcohol-derived macrocycles leading to a small-molecule binder to and inhibitor of Sonic Hedgehog” (Bioorg Med Chem Lett, 2009).
